According to patent US12448394B2, “Heterocyclic pyrazole derivatives as type III receptor tyrosine kinase inhibitors” (DEVELOPMENT CENTER FOR BIOTECHNOLOGY, priority 2019, dated 2025):
pIC50: −log10 of the molar value.

Key:
FLT3 kinase = biological target: T1, FLT3 kinase (Homo sapiens, UniProt P36888); experiment: FLT3 kinase assay (AlphaScreen); assay type: biochemical; conditions: read-out: Ranking of IC50 values, FLT3
T1 construct: purchased SignalChem
T1 sequence (P36888 27-993): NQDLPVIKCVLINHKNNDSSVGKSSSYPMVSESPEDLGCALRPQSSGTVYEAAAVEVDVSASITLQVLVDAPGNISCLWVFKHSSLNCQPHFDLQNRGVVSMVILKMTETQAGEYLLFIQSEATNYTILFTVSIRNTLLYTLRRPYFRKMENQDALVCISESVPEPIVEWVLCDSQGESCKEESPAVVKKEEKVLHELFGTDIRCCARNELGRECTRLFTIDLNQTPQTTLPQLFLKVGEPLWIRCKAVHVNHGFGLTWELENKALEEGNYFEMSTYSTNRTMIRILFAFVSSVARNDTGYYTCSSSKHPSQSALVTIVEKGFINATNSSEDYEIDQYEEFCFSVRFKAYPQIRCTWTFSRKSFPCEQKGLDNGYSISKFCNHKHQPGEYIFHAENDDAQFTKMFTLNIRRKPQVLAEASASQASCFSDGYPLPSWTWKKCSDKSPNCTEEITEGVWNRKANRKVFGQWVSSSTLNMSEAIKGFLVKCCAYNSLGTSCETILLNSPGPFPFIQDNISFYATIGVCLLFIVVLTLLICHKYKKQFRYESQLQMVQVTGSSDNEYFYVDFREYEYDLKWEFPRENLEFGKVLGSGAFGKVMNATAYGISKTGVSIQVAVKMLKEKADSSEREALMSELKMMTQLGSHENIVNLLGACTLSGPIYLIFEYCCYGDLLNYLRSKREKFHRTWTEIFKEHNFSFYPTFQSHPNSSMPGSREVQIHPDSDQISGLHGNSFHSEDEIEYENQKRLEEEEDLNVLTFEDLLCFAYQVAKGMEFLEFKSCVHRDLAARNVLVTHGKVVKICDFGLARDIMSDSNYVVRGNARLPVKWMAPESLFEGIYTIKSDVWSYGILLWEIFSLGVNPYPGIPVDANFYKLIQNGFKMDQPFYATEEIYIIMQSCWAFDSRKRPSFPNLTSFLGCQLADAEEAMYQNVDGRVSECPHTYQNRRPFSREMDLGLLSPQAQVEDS
Method in brief: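 Recombinant FLT3 (1.5 ng) phosphorylated biotinylated poly(Glu4:Tyr1) with 10 μM ATP in MOPS pH 7.0 buffer containing 10 mM MgCl2, 30 min at 30 °C, stopped with EDTA. Product detected by AlphaScreen; IC50 from duplicate serial dilutions.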

[1] = test system: HCC827 NSCLC cell with EGFR exon 19 deletion mutation; experiment: HCC827 cell proliferation assay (counter screen); assay type: cell-based, human; conditions: Homo sapiens, HCC827 cells, 72 hours treatment, CellTiter96, read-out: anti-proliferation activity HCC827 EGFR Exon19 del, IC50 ranking
Method in brief: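 HCC827 cells (EGFR exon 19 deletion) were seeded at 8000 cells/well in RPMI1640 with 10% FBS, then exposed to increasing compound concentrations for 72 h at 37 °C. Viability was read by CellTiter96 AQueous One (MTS), absorbance 490 nm after 2–4 h.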

| SMILES | pIC50 (FLT3 kinase) | pIC50 [1] |
| --- | --- | --- |
| Cn1cc(-c2cc3c(s2)Cc2c(-c4ccc5cnn(C)c5c4)n[nH]c2-3)cc1C(=O)N1CCOCC1 [Compound 46, (1-methyl-4-(3-(1-methyl-1H-indazol-6-yl)-1,4-dihydrothieno[2′,3′:4,5]cyclopenta[1,2-c]pyrazol-6-yl)-1H-pyrrol-2-yl) (morpholino)methanone] | > 9.00 | < 5.00 |
| Cn1ncc2ccc(-c3n[nH]c4c3Cc3sc(-c5ccc(S(=O)(=O)N6CCOCC6)cc5)cc3-4)cc21 [Compound 47, 4-((4-(3-(1-methyl-1H-indazol-6-yl)-1,4-dihydro-thieno[2′,3′:4,5]cyclopenta [1,2-c]pyrazol-6-yl)phenyl)sulfonyl) morpholine] | > 9.00 | < 5.00 |
| Cn1ncc2ccc(-c3n[nH]c4c3Cc3sc(-c5csc(C(=O)N6CCOCC6)c5)cc3-4)cc21 [Compound 48, (4-(3-(1-methyl-1H-indazol-6-yl)-1,4-dihydro-thieno[2′,3′:4,5]cyclopenta [1,2-c]pyrazol-6-yl)thiophen-2-yl) (morpholino)methanone] | > 9.00 | < 5.00 |
| CN(C)C(=O)c1ccc(-c2cc3c(s2)Cc2c(-c4ccc5cnn(C)c5c4)n[nH]c2-3)cc1 [Compound 49, N,N-dimethyl-4-(3-(1-methyl-1H-indazol-6-yl)-1,4-dihydrothieno [2′,3′:4,5]cyclopenta [1,2-c]pyrazol-6-yl) benzamide] | > 9.00 | < 5.00 |
| CN(C)S(=O)(=O)c1ccc(-c2cc3c(s2)Cc2c(-c4ccc5cnn(C)c5c4)n[nH]c2-3)cc1 [Compound 50, N,N-dimethyl-4-(3-(1-methyl-1H-indazol-6-yl)-1,4-dihydrothieno [2′,3′:4,5]cyclopenta [1,2-c]pyrazol-6-yl) benzenesulfonamide] | > 9.00 | < 5.00 |
| Cn1ncc2ccc(-c3n[nH]c4c3Cc3sc(-c5ccc(CN6CCOCC6)s5)cc3-4)cc21 [Compound 51, 4-((5-(3-(1-methyl-1H-indazol-6-yl)-1,4-dihydro-thieno[2′,3′:4,5]cyclopenta [1,2-c]pyrazol-6-yl)thiophen-2-yl)methyl) morpholine] | > 9.00 | < 5.00 |
| Cn1ncc2ccc(-c3n[nH]c4c3Cc3sc(-c5csc(CN6CCOCC6)c5)cc3-4)cc21 [Compound 52, 4-((4-(3-(1-methyl-1H-indazol-6-yl)-1,4-dihydro-thieno[2′,3′:4,5]cyclopenta [1,2-c]pyrazol-6-yl)thiophen-2-yl)methyl) morpholine] | > 9.00 | < 5.00 |
| Cn1ncc2ccc(-c3n[nH]c4c3Cc3sc(-c5cc(F)c(CN6CCOCC6)c(F)c5)cc3-4)cc21 [Compound 53, 4-(2,6-difluoro-4-(3-(1-methyl-1H-indazol-6-yl)-1,4-dihydrothieno [2′,3′:4,5]cyclopenta [1,2-c]pyrazol-6-yl)benzyl)morpholine] | > 9.00 | < 5.00 |
| C[C@@H]1CN(Cc2ccc(-c3cc4c(s3)Cc3c(-c5ccc6cnn(C)c6c5)n[nH]c3-4)cc2)C[C@H](C)O1 [Compound 54, (2S,6R)-2,6-dimethyl-4-(4-(3-(1-methyl-1H-indazol-6-yl)-1,4-dihydro-thieno[2′,3′:4,5]cyclopenta [1,2-c]pyrazol-6-yl)benzyl)morpholine] | > 9.00 | < 5.00 |
| Cn1ncc2ccc(-c3n[nH]c4c3Cc3sc(-c5cc(C(=O)N6CCOCC6)ccn5)cc3-4)cc21 [Compound 56, (2-(3-(1-methyl-1H-indazol-6-yl)-1,4-dihydro-thieno[2′,3′:4,5]cyclopenta [1,2-c]pyrazol-6-yl)pyridin-4-yl)(morpholino) methanone] | 8.00 to 9.00 | < 5.00 |

More lines, main results first:

| pIC50 (FLT3 kinase) | SMILES | pIC50 [1] |
| --- | --- | --- |
| > 9.00 | Cn1ncc2ccc(-c3n[nH]c4c3Cc3sc(C5=CCN(C(=O)N6CCOCC6)CC5)cc3-4)cc21 [Compound 57, (4-(3-(1-methyl-1H-indazol-6-yl)-1,4-dihydro-thieno[2′,3′:4,5]cyclopenta [1,2-c]pyrazol-6-yl)-3,6-dihydropyridin-1(2H)-yl) (morpholino)methanone] | < 5.00 |
| 8.00 to 9.00 | Cn1ncc2ccc(-c3n[nH]c4c3Cc3sc(C5CCN(C(=O)OC(C)(C)C)CC5)cc3-4)cc21 [Compound 58, tert-butyl-4-(3-(1-methyl-1H-indazol-6-yl)-1,4-dihydrothieno[2′,3′:4,5]cyclopenta[1,2-c]pyrazol-6-yl)piperidine-1-carboxylate] | < 5.00 |
| > 9.00 | Cn1ncc2ccc(-c3n[nH]c4c3Cc3sc(-c5ccc(CN6CCOCC6=O)cc5)cc3-4)cc21 [Compound 59, 4-(4-(3-(1-methyl-1H-indazol-6-yl)-1,4-dihydro-thieno[2′,3′:4,5]cyclopenta [1,2-c]pyrazol-6-yl)benzyl)morpholin-3-one] | < 5.00 |
| > 9.00 | Cn1ncc2ccc(-c3n[nH]c4c3Cc3sc(-c5csc(C(=O)N6CCOCC6)n5)cc3-4)cc21 [Compound 60, (4-(3-(1-methyl-1H-indazol-6-yl)-1,4-dihydro-thieno[2′,3′:4,5]cyclopenta [1,2-c]pyrazol-6-yl)thiazol-2-yl)(morpholino) methanone] | 5.00 to 6.00 |
| 8.00 to 9.00 | Cn1ncc2ccc(-c3n[nH]c4c3Cc3sc(-c5ccc(CN6CCCCC6=O)cc5)cc3-4)cc21 [Compound 61, 1-(4-(3-(l-methyl-1H-indazol-6-yl)-1,4-dihydro-thieno[2′,3′:4,5]cyclopenta [1,2-c]pyrazol-6-yl)benzyl)piperidin-2-one] | < 5.00 |
| 8.00 to 9.00 | Cn1ncc2ccc(-c3n[nH]c4c3Cc3sc(-c5ccc(CN6CCNC(=O)C6)cc5)cc3-4)cc21 [Compound 63, 4-(4-(3-(1-methyl-1H-indazol-6-yl)-1,4-dihydro-thieno[2′,3′:4,5]cyclopenta [1,2-c]pyrazol-6-yl)benzyl)piperazin-2-one] | < 5.00 |
| 8.00 to 9.00 | Cn1ncc2ccc(-c3n[nH]c4c3Cc3sc(-c5ccc(CN6CCCC6=O)cc5)cc3-4)cc21 [Compound 64, 1-(4-(3-(1-methyl-1H-indazol-6-yl)-1,4-dihydro-thieno[2′,3′:4,5]cyclopenta [1,2-c]pyrazol-6-yl)benzyl)pyrrolidin-2-one] | < 5.00 |
| 8.00 to 9.00 | CC1C(=O)N(C)CCN1Cc1ccc(-c2cc3c(s2)Cc2c(-c4ccc5cnn(C)c5c4)n[nH]c2-3)cc1 (stereo not shown) [Compound 65, 1,3-dimethyl-4-(4-(3-(1-methyl-1H-indazol-6-yl)-1,4-dihydrothieno [2′,3′:4,5]cyclopenta [1,2-c]pyrazol-6-yl)benzyl)piperazin-2-one] | < 5.00 |
| > 9.00 | Cn1ncc2ccc(-c3n[nH]c4c3Cc3sc(-c5ccc(CCN6CCOCC6=O)cc5)cc3-4)cc21 [Compound 66, 4-(4-(3-(1-methyl-1H-indazol-6-yl)-1,4-dihydro-thieno[2′,3′:4,5]cyclopenta [1,2-c]pyrazol-6-yl)phenethyl)morpholin-3-one] | < 5.00 |
| 8.00 to 9.00 | Cn1ncc2ccc(-c3n[nH]c4c3Cc3sc(-c5ccc(CN6CCC(F)(F)C6)cc5)cc3-4)cc21 [Compound 67, 6-(4-((3,3-difluoro-pyrrolidin-1-yl)methyl)phenyl)-3-(1-methyl-1H-indazol-6-yl)-1,4-dihydro-thieno[2′,3′:4,5]cyclopenta [1,2-c]pyrazole] | < 5.00 |
